According to patent publication US20140336182A1, “Aurora Kinase Modulators and Method of Use” (Amgen Inc., priority 2013, published 2014):
Read-outs that look alike come from different tables or passages of the source.

System: HeLa cells
Test: HeLa cell 24 hr ploidy assay (DNA content)
Format: cell-based
Conditions: Homo sapiens, HeLa, average, read-out: 24h_4NPloidy EC50_IP (uM Avg)
Experimental: HeLa cell 24 hr ploidy assay protocol
The purpose of this assay is to evaluate the ability of selected individual compounds to induce Deoxyribonucleic acid (DNA) content (ploidy) in cells through failed cell division. Cell cycle analysis is a rapid and efficient way to evaluate the status of DNA content (ploidy) of a given cell. HeLa cells (1×10^4 HeLa cells/well) in 100 ul of media (MEM+10% FBS) were plated in 96-well plates (Packard View) and cultured for 24 hrs at 37° C. maintained in a 5% CO2 atmosphere. […] The compounds were serially diluted in DMSO (0.25% final concentration). The cells were fixed (3.7% Formaldehyde and 1% glutaraldehyde) and permeabilized (1×PBS with 1% BSA and 0.2% Triton X-100) in preparation for nuclear staining. The well plates were stained for 45 minutes at RT in the dark using Hoechest 33342 nuclear stain at 0.5 ug.ml (Stock of 10 mg/ml, Invitrogen, CA, Cat #H3570). The nuclear stain was removed by aspiration and the cells were washed with wash buffer. A Cellomics Array Scan Vti plate reader was used to acquire the DNA ploidy data of the cells using Cell Cycle bioapplication. Numbers for each of “valid cell count/well”, “% of 4N cells” and “% of >4Ncells” were calculated with the assistance of an Activity Base 5.1ca software and dose curves were generated using an XLFit software. With XLFit, final EC50 IP and EC50 transit values, as well as the Max and Min, were calculated for each curve.

Row | Structure (SMILES) | EC50 (HeLa cells, 4N ploidy) | also measured
1 | COc1cccc(-c2nnc(Nc3ccc(Oc4ccnc5ccccc45)c(F)c3)c3ccccc23)n1 [compound 186] | 0.031 µM | –
2 | COc1cc(F)cc2nccc(Sc3ccc(Nc4nnc(-c5ccc(Cl)cc5)c5ccccc45)cc3)c12 [compound 438] | 0.016 µM | –
3 | Cc1noc(-c2cc3nccc(Oc4ccc(Nc5nnc(-c6ccccc6)c6ccccc56)cc4)c3s2)n1 [compound 288] | 0.828 µM | –
4 | COc1cnc2c(Oc3ccc(Nc4nnc(-c5ccc(Cl)c(OCCS(C)(=O)=O)c5)c5ccccc45)cc3)ccnc2c1 [Example 394, 4-(4-Chloro-3-(2-(methylsulfonyl)ethoxy)phenyl)-N-(4-(7-methoxy-1,5-naphthyridin-4-yloxy)phenyl)phthalazin-1-amine] | 0.045 µM | –
5 | COc1cnc2c(Sc3ccc(Nc4nnc(N5CCn6ccnc6C5)c5ccccc45)cc3)ccnc2c1 [compound 576] | 0.013 µM | –
6 | COc1cnc2c(Oc3ccc(Nc4nnc(-c5ccc(C)s5)c5ccccc45)cc3)ccnc2c1 [compound 138] | – | EC50 (4N ploidy): 0.03 µM
7 | COc1cnc2c(Sc3ccc(Nc4nnc(-c5cccc(C)n5)c5ccccc45)cc3)ccnc2c1 [compound 420] | 0.029 µM | –
8 | COCCOc1cc(-c2nnc(Nc3ccc(Oc4ccnc5cc(OC)cnc45)cc3)c3ccccc23)ccc1C [Example 395, N-(4-(7-Methoxy-1,5-naphthyridin-4-yloxy)phenyl)-4-(3-(2-methoxyethoxy)-4-methylphenyl)phthalazin-1-amine] | 0.023 µM | –
9 | c1ccc(-c2nnc(Nc3ccc(Oc4ccnc5ccnn45)cc3)c3ccccc23)cc1 [compound 370] | 0.757 µM | –
10 | COc1cnc2c(Oc3ccc(Nc4nnc(-c5cnn(C)c5)c5ccccc45)cc3)ccnc2c1 [compound 216] | 0.074 µM | –
11 | Cc1ccc(-c2nnc(Nc3ccc(Oc4ccnc5cc(-c6cncn6C)sc45)cc3)c3ccccc23)cc1 [compound 203] | 0.002 µM | –
12 | COc1cnc2c(Sc3ccc(Nc4nnc(N5CCCC5)c5ccccc45)cc3)ccnc2c1 [compound 521] | 0.021 µM | –
13 | COc1ccc2nccc(Sc3ccc(Nc4nnc(-c5ccc(Cl)cc5)c5ccccc45)cc3)c2n1 [compound 348] | 0.012 µM | –
14 | Brc1ccc2nccc(Oc3ccc(Nc4nnc(-c5ccccc5)c5ccccc45)cc3)c2c1 [compound 134] | – | EC50 (4N ploidy): 0.091 µM
15 | N#Cc1ccc(-c2nnc(Nc3ccc(Oc4ccnc5cc(C#N)ccc45)cc3)c3ccccc23)cc1 [compound 217] | 0.369 µM | –
16 | c1ccc(-c2nnc(Nc3ccc(Oc4ccnc5cc(N6CCOCC6)ccc45)cc3)c3ccccc23)cc1 [Example 42, N-(4-(7-Morpholinoquinolin-4-yloxy)phenyl)-4-phenylphthalazin-1-amine] | 0.007 µM | –
17 | COc1cnc2c(Sc3ccc(Nc4nnc(C#N)c5ccccc45)cc3)ccnc2c1 [Example 404, 4-(4-(7-Methoxy-1,5-naphthyridin-4-ylthio)phenylamino)phthalazine-1-carbonitrile] | 0.063 µM | –
18 | Cc1cc2nccc(Sc3ccc(Nc4nnc(-c5ccc(Cl)cc5)c5ccccc45)cc3)c2s1 [compound 559] | 0.018 µM | –
19 | COc1ccc(-c2nnc(Nc3ccc(Sc4ccnc5cccnc45)cc3)c3ccccc23)cn1 [compound 509] | 0.008 µM | –
20 | COc1ccc2nccc(Sc3ccc(Nc4nnc(-c5ccc(Cl)cn5)c5ccccc45)cc3)c2n1 [compound 550] | 0.016 µM | –
21 | COc1ccc(-c2nnc(Nc3ccc(Oc4ccnc5cc(OC)cnc45)cc3)c3ccccc23)cc1 [Example 37, N-(4-(7-methoxy-1,5-naphthyridin-4-yloxy)phenyl)-4-(4-methoxyphenyl)phthalazin-1-amine] | – | EC50 (4N ploidy): 0.052 µM
22 | COc1cnc2c(Oc3ccc(Nc4nnc(-c5ccc(C(F)(F)F)c(Cl)c5)c5ccccc45)cc3)ccnc2c1 [compound 172, 4-(3-chloro-4-(trifluoromethyl)phenyl)-N-(4-((7-(methyloxy)-1,5-naphthyridin-4-yl)oxy)phenyl)-1-phthalazinamine] | 0.034 µM | –
23 | Clc1ccc(-c2nnc(Nc3ccc(Sc4ccnc5[nH]cnc45)cc3)c3ccccc23)cc1 [compound 363] | 0.032 µM | –
24 | COc1cnc2c(Sc3ccc(Nc4nnc(N5CCN6CCCC[C@H]6C5)c5ccccc45)cc3)ccnc2c1 [compound 585] | 0.018 µM | –
25 | CCOc1nc(-c2nnc(Nc3ccc(Oc4ccnc5cc(OC)cnc45)cc3)c3ccccc23)cs1 [compound 175] | 0.059 µM | –
26 | COc1cnc2c(Oc3ccc(Cc4nnc(-c5ccc(C)cc5)c5ccccc45)cc3)ccnc2c1 [compound 126, 3-(methyloxy)-8-((4-((4-(4-methylphenyl)-1-phthalazinyl)methyl)phenyl)oxy)-1,5-naphthyridine] | – | EC50 (4N ploidy): > 1.2 µM

Row | Structure (SMILES) | EC50 (HeLa cells, 4N ploidy) | also measured
27 | COc1cnc2c(Oc3ccc(Nc4nnc(N5CCCCCC5)c5ccccc45)cc3)ccnc2c1 [Example 32, 4-(azepan-1-yl)-N-(4-(7-methoxy-1,5-naphthyridin-4-yloxy)phenyl)phthalazin-1-amine] | – | EC50 (4N ploidy): 0.036 µM
28 | COc1cnc2c(Oc3ccc(Nc4nnc(N5CCN6CCC[C@H]6C5)c5ccccc45)cc3)ccnc2c1 [compound 97] | – | EC50 (4N ploidy): 0.026 µM
29 | COc1cnc2c(Sc3ccc(Nc4nnc(-c5ccc(F)cc5)c5ccccc45)cc3)ccnc2c1 [compound 356, 4-(4-fluorophenyl)-N-(4-(7-methoxy-1,5-naphthyridin-4-ylthio)phenyl)phthalazin-1-amine] | 0.007 µM | –
30 | Cn1cncc1-c1cc2nccc(Oc3ccc(Nc4nnc(-c5ccc(Cl)cc5)c5ccccc45)cc3)c2s1 [compound 249] | 0.008 µM | –
31 | COc1cnc2c(Sc3ccc(Nc4nnc(-c5ccc6cn(C)nc6c5)c5ccccc45)cc3)ccnc2c1 [compound 502] | 0.006 µM | –
32 | COc1cnc2c(Sc3ccc(Nc4nnc(-c5ccc6c(c5)OCO6)c5ccccc45)cc3F)ccnc2c1 [compound 522] | 0.001 µM | –
33 | c1ccc(-c2nnc(Nc3ccc(Oc4ccnc5ccsc45)cc3)c3ccccc23)cc1 [compound 251] | 0.227 µM | –
34 | COc1cnc2c(Sc3ccc(Nc4nnc(-c5ccc6c(c5)OCO6)c5ccccc45)cc3)ccnc2c1 [compound 530] | 0.001 µM | –
35 | COc1cnc2c(Oc3ccc(Nc4nnc(-c5cc(C)cc(C)c5)c5ccccc45)cc3)ccnc2c1 [compound 188] | 0.051 µM | –
36 | COc1ccc2c(C(C)c3ccc(Nc4nnc(-c5ccc(Cl)cc5)c5ccccc45)cc3)ccnc2c1 (stereo not shown) [compound 613] | – | EC50 (HeLa cells): > 1.2 µM
37 | COc1cc2nccc(Oc3ccc(Nc4nnc(-c5ccc(C)cn5)c5ccccc45)cc3)c2cn1 [compound 103] | – | EC50 (4N ploidy): 0.03 µM
38 | COc1cc(OC)c2c(Oc3ccc(Nc4nnc(-c5cc(C)cs5)c5ccccc45)cc3)ncnc2c1 [compound 573] | 0.011 µM | –
39 | COc1cnc2c(Sc3ccc(Nc4nnc(N5CCN6CCC[C@H]6C5)c5ccccc45)cc3)ccnc2c1 [compound 563] | < 0.0023 µM | –
40 | Cn1cc(-c2ccc3c(Oc4ccc(Nc5nnc(-c6ccccc6)c6ccccc56)cc4)ccnc3c2)cn1 [compound 338, N-(4-(7-(1-methyl-1H-pyrazol-4-yl)quinolin-4-yloxy)phenyl)-4-phenylphthalazin-1-amine] | 0.005 µM | –
41 | COc1cnc2c(Sc3ccc(Nc4nnc(N5CCC(F)CC5)c5ccccc45)cc3)ccnc2c1 [compound 557] | 0.026 µM | –
42 | COc1cnc2c(Oc3ccc(Nc4nnc(-c5ccc6c(c5)OCCO6)c5ccccc45)cc3)ccnc2c1 [compound 166] | 0.087 µM | –
43 | COc1cnc2c(Sc3ccc(Nc4nnc(-c5cc(C)cs5)c5ccccc45)cc3F)ccnc2c1 [compound 528] | 0.009 µM | –
44 | Brc1cnc2c(Oc3ccc(Nc4nnc(-c5ccccc5)c5ccccc45)cc3)ncnc2c1 [compound 599] | > 1.2 µM | –
45 | COc1cnc2c(Oc3ccc(Nc4nnc(-c5cc(CF)cs5)c5ccccc45)cc3)ccnc2c1 [Example 408, 4-(4-(Fluoromethyl)thiophen-2-yl)-N-(4-(7-methoxy-1,5-naphthyridin-4-yloxy)phenyl)phthalazin-1-amine] | 0.025 µM | –
46 | Cc1csc(-c2nnc(Nc3ccc(Oc4ccnc5cc(C#N)ccc45)cc3)c3ccccc23)c1 [compound 170] | 0.007 µM | –
47 | COc1cnc2c(Oc3ccc(Nc4nnc(-c5ccc(Cl)cc5)c5ccccc45)cc3F)ccnc2c1 [compound 284] | 0.011 µM | –
48 | Oc1ccc2nccc(Sc3ccc(Nc4nnc(-c5ccc(Cl)cc5)c5ccccc45)cc3)c2c1 [Example 388, 4-(4-(4-(4-Chlorophenyl)phthalazin-1-ylamino)phenylthio)quinolin-6-ol] | 0.013 µM | –
49 | COc1cnc2c(Oc3ccc(Nc4nnc(-c5ccc6c(c5)CCO6)c5ccccc45)cc3)ccnc2c1 [compound 168, 4-(2,3-dihydro-1-benzofuran-5-yl)-N-(4-((7-(methyloxy)-1,5-naphthyridin-4-yl)oxy)phenyl)-1-phthalazinamine] | 0.007 µM | –
50 | Cc1csc(-c2nnc(Nc3ccc(Oc4ccnc5ccc(OC(F)(F)F)cc45)cc3)c3ccccc23)c1 [compound 575] | 0.112 µM | –
51 | N#Cc1cnc2c(Oc3ccc(Nc4nnc(-c5ccc(Cl)cc5)c5ccccc45)cc3)ccnc2c1 [compound 265, 8-((4-((4-(4-chlorophenyl)-1-phthalazinyl)amino)phenyl)oxy)-1,5-naphthyridine-3-carbonitrile] | 0.056 µM | –
52 | Cc1ccc(-c2nnc(Nc3ccc(Oc4ccnc5ccsc45)cc3)c3ccccc23)cc1 [compound 252] | 0.027 µM | –
